Reference: PubChem BioAssay AID1963979 (Molecular Pharmacology Branch, DTP, NCI, 2024)

Test system: 361931-004-R-J1-PDC multicell spheroid viability
Assay: Anticancer human tumor 361931-004-R-J1-PDC patient-derived colon adenocarcinoma cell line growth inhibition [PI3K]
Conditions: for IC50: curve of first compound; for viability, T/C: stronger effect = lower value; active means viability on the fitted dose curve at most 10% of control; inactive means the rest
Method in brief: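 Multi-cell spheroids combine tumor cells with HUVEC and human MSCs, treated with targeted agents alone or with inavolisib, alpelisib, duvelisib or copanlisib. Concentrations fall in half-log steps from at or near clinical Cmax, or from 10 microM where Cmax is unknown; viability read-out.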

[1] = second compound 0.0316 µM, first compound 0.0316 µM
[2] = second compound 0.0316 µM, first compound 0.1 µM
[3] = second compound 0.0316 µM, first compound 0.316 µM
[4] = second compound 0.0316 µM, first compound 1 µM
[5] = second compound 0.0316 µM, first compound 3.16 µM
[6] = second compound 0.0316 µM, first compound 10 µM
[7] = second compound 0.1 µM, first compound 0.0316 µM
[8] = second compound 0.1 µM, first compound 0.1 µM
[9] = second compound 0.1 µM, first compound 0.316 µM
[10] = second compound 0.1 µM, first compound 1 µM
[11] = second compound 0.1 µM, first compound 3.16 µM
[12] = second compound 0.1 µM, first compound 10 µM
[13] = second compound 0.316 µM, first compound 0.0316 µM
[14] = second compound 0.316 µM, first compound 0.1 µM
[15] = second compound 0.316 µM, first compound 0.316 µM
[16] = second compound 0.316 µM, first compound 1 µM
[17] = second compound 0.316 µM, first compound 3.16 µM
[18] = second compound 0.316 µM, first compound 10 µM
[19] = second compound 1 µM, first compound 0.0316 µM
[20] = second compound 1 µM, first compound 0.1 µM
[21] = second compound 1 µM, first compound 0.316 µM
[22] = second compound 1 µM, first compound 1 µM
[23] = second compound 1 µM, first compound 3.16 µM
[24] = second compound 1 µM, first compound 10 µM
[25] = second compound 3.16 µM, first compound 0.0316 µM
[26] = second compound 3.16 µM, first compound 0.1 µM
[27] = second compound 3.16 µM, first compound 0.316 µM
[28] = second compound 3.16 µM, first compound 1 µM
[29] = second compound 3.16 µM, first compound 3.16 µM
[30] = second compound 3.16 µM, first compound 10 µM
[31] = second compound 10 µM, first compound 0.0316 µM
[32] = second compound 10 µM, first compound 0.1 µM
[33] = second compound 10 µM, first compound 0.316 µM
[34] = second compound 10 µM, first compound 1 µM
[35] = second compound 10 µM, first compound 3.16 µM
[36] = second compound 10 µM, first compound 10 µM
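Further: spheroids exposed to agents for seven days before readout.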

C#Cc1c(F)ccc2cc(O)cc(-c3ncc4c(N5CC6CCC(C5)N6)nc(OCC56CCCN5CC(F)C6)nc4c3F)c12 (stereo not given) + Cc1nc(NC(=O)N2CCCC2C(N)=O)sc1-c1ccnc(C(C)(C)C(F)(F)F)c1
inactive: viability, T/C [1] 104% | viability, T/C [2] 90.5% | viability, T/C [3] 91.6% | viability, T/C [4] 83% | viability, T/C [5] 79.7% | viability, T/C [6] 69.3% | viability, T/C [7] 109% | viability, T/C [8] 98.3% | viability, T/C [9] 93.7% | viability, T/C [10] 88.9% | viability, T/C [11] 88.2% | viability, T/C [12] 61.8% | viability, T/C [13] 91.6% | viability, T/C [14] 86.5% | viability, T/C [15] 78.6% | viability, T/C [16] 69.5% | viability, T/C [17] 73.5% | viability, T/C [18] 58% | viability, T/C [19] 89.2% | viability, T/C [20] 86.2% | viability, T/C [21] 70.3% | viability, T/C [22] 62.2% | viability, T/C [23] 68.2% | viability, T/C [24] 58.6% | viability, T/C [25] 85.4% | viability, T/C [26] 77.9% | viability, T/C [27] 65.5% | viability, T/C [28] 53.9% | viability, T/C [29] 56.5% | viability, T/C [30] 42% | viability, T/C [31] 62.2% | viability, T/C [32] 48% | viability, T/C [33] 49% | viability, T/C [34] 40.2% | viability, T/C [35] 39.2% | viability, T/C [36] 22.1%
3.52 µM: IC50 (second compound 3.16 µM)
> 10 µM: IC50 (second compound 0.0316 µM) | IC50 (second compound 0.1 µM) | IC50 (second compound 0.316 µM) | IC50 (second compound 1 µM)
0.219 µM: IC50 (second compound 10 µM)

C=CC(=O)N1CCN(c2nc(=O)n(-c3c(C)ccnc3C(C)C)c3nc(-c4c(O)cccc4F)c(F)cc23)C(C)C1 (stereo not given) + Cc1nc(NC(=O)N2CCCC2C(N)=O)sc1-c1ccnc(C(C)(C)C(F)(F)F)c1
> 10 µM: IC50 (second compound 0.0316 µM) | IC50 (second compound 0.1 µM) | IC50 (second compound 0.316 µM) | IC50 (second compound 1 µM) | IC50 (second compound 3.16 µM) | IC50 (second compound 10 µM)
inactive: viability, T/C [1] 91% | viability, T/C [2] 102% | viability, T/C [3] 87.7% | viability, T/C [4] 96.5% | viability, T/C [5] 93.3% | viability, T/C [6] 73.9% | viability, T/C [7] 91.8% | viability, T/C [8] 96.8% | viability, T/C [9] 98.6% | viability, T/C [10] 99% | viability, T/C [11] 97.4% | viability, T/C [12] 61.7% | viability, T/C [13] 96.6% | viability, T/C [14] 96.7% | viability, T/C [15] 99.5% | viability, T/C [16] 85.2% | viability, T/C [17] 96.3% | viability, T/C [18] 73.5% | viability, T/C [19] 90.2% | viability, T/C [20] 83.4% | viability, T/C [21] 80.5% | viability, T/C [22] 73.6% | viability, T/C [23] 80.8% | viability, T/C [24] 63% | viability, T/C [25] 74.9% | viability, T/C [26] 85.6% | viability, T/C [27] 67% | viability, T/C [28] 69.9% | viability, T/C [29] 72.8% | viability, T/C [30] 55.5% | viability, T/C [31] 58.4% | viability, T/C [32] 61.2% | viability, T/C [33] 56.9% | viability, T/C [34] 68.3% | viability, T/C [35] 57.8% | viability, T/C [36] 40%

CC(Cn1ccc(-c2ccc(C#N)c(Cl)c2)n1)NC(=O)c1cc(C(C)O)[nH]n1 (stereo not given) + Cc1nc(NC(=O)N2CCCC2C(N)=O)sc1-c1ccnc(C(C)(C)C(F)(F)F)c1
inactive: viability, T/C [1] 102% | viability, T/C [2] 102% | viability, T/C [3] 96.3% | viability, T/C [4] 100% | viability, T/C [5] 107% | viability, T/C [6] 98.7% | viability, T/C [7] 105% | viability, T/C [8] 105% | viability, T/C [9] 99.1% | viability, T/C [10] 113% | viability, T/C [11] 109% | viability, T/C [12] 101% | viability, T/C [13] 98.5% | viability, T/C [14] 113% | viability, T/C [15] 95.6% | viability, T/C [16] 105% | viability, T/C [17] 98.9% | viability, T/C [18] 91.5% | viability, T/C [19] 95.4% | viability, T/C [20] 102% | viability, T/C [21] 87.4% | viability, T/C [22] 96% | viability, T/C [23] 97% | viability, T/C [24] 84.2% | viability, T/C [25] 87.4% | viability, T/C [26] 81.3% | viability, T/C [27] 90.7% | viability, T/C [28] 83.6% | viability, T/C [29] 94.4% | viability, T/C [30] 79.4% | viability, T/C [31] 68% | viability, T/C [32] 68% | viability, T/C [33] 72.8% | viability, T/C [34] 62.4% | viability, T/C [35] 59.8% | viability, T/C [36] 53%
> 10 µM: IC50 (second compound 0.0316 µM) | IC50 (second compound 0.1 µM) | IC50 (second compound 0.316 µM) | IC50 (second compound 1 µM) | IC50 (second compound 3.16 µM) | IC50 (second compound 10 µM)

Cn1ncc(Cl)c1-c1cc(C(=O)NC(CN)Cc2cccc(F)c2)sc1Cl (stereo not given) + Cc1nc(NC(=O)N2CCCC2C(N)=O)sc1-c1ccnc(C(C)(C)C(F)(F)F)c1
1.32 µM: IC50 (second compound 0.0316 µM)
0.793 µM: IC50 (second compound 0.316 µM)
inactive: viability, T/C [1] 98.5% | viability, T/C [2] 95% | viability, T/C [3] 83.4% | viability, T/C [4] 53.4% | viability, T/C [5] 34.3% | viability, T/C [6] 19.7% | viability, T/C [7] 96.3% | viability, T/C [8] 95.3% | viability, T/C [9] 71.8% | viability, T/C [10] 48.8% | viability, T/C [11] 29.8% | viability, T/C [12] 20.5% | viability, T/C [13] 100% | viability, T/C [14] 87.5% | viability, T/C [15] 77.2% | viability, T/C [16] 40% | viability, T/C [17] 28% | viability, T/C [18] 14.5% | viability, T/C [19] 89.8% | viability, T/C [20] 93.7% | viability, T/C [21] 72.3% | viability, T/C [22] 39.1% | viability, T/C [23] 28.8% | viability, T/C [24] 16% | viability, T/C [25] 77.4% | viability, T/C [26] 87.1% | viability, T/C [27] 67.8% | viability, T/C [28] 35.1% | viability, T/C [29] 29.2% | viability, T/C [30] 11.6% | viability, T/C [31] 77.2% | viability, T/C [32] 69.1% | viability, T/C [33] 54.9% | viability, T/C [34] 34.2% | viability, T/C [35] 20.6%
0.411 µM: IC50 (second compound 10 µM)
0.922 µM: IC50 (second compound 0.1 µM)
0.715 µM: IC50 (second compound 1 µM)
active: viability, T/C [36] 7.91%
0.628 µM: IC50 (second compound 3.16 µM)

Cn1nccc1Nc1nccc(-c2ccn(C(CO)c3ccc(Cl)c(F)c3)c(=O)c2)n1 (stereo not given) + Cc1nc(NC(=O)N2CCCC2C(N)=O)sc1-c1ccnc(C(C)(C)C(F)(F)F)c1
3.14 µM: IC50 (second compound 1 µM)
inactive: viability, T/C [1] 106% | viability, T/C [2] 101% | viability, T/C [3] 90.4% | viability, T/C [4] 94.5% | viability, T/C [5] 85.9% | viability, T/C [6] 49.2% | viability, T/C [7] 108% | viability, T/C [8] 109% | viability, T/C [9] 101% | viability, T/C [10] 89.4% | viability, T/C [11] 78.8% | viability, T/C [12] 42.9% | viability, T/C [13] 112% | viability, T/C [14] 110% | viability, T/C [15] 95.5% | viability, T/C [16] 86.8% | viability, T/C [17] 69.8% | viability, T/C [18] 37.3% | viability, T/C [19] 99.5% | viability, T/C [20] 99.6% | viability, T/C [21] 94% | viability, T/C [22] 83.2% | viability, T/C [23] 49.4% | viability, T/C [24] 26.9% | viability, T/C [25] 91.4% | viability, T/C [26] 87.2% | viability, T/C [27] 75.9% | viability, T/C [28] 56.6% | viability, T/C [29] 24% | viability, T/C [31] 80% | viability, T/C [32] 63.5% | viability, T/C [33] 43.6% | viability, T/C [34] 19%
6.31 µM: IC50 (second compound 0.316 µM)
0.213 µM: IC50 (second compound 10 µM)
7.97 µM: IC50 (second compound 0.1 µM)
9.92 µM: IC50 (second compound 0.0316 µM)
active: viability, T/C [30] 10.4% | viability, T/C [35] 4.98% | viability, T/C [36] 2.3%
1.19 µM: IC50 (second compound 3.16 µM)
